Consider three molecules from patent US20210307271A1, “OPTIMIZATION OF ALGAL PRODUCT PRODUCTION THROUGH UNCOUPLING CELL PROLIFERATION AND ALGAL PRODUCT PRODUCTION” (priority 2008, published 2021).

The first assay concerns Scenedesmus obliquus. Description: Effect of hormone concentrations on growth rate, photoheterotrophic conditions, 48 hours. The format is cell-based. Also noted: unit not given here. The settings on record: hormone 0.01 ng, control 0.41 ± 0.042.
Molecule `C=C1C[C@]23C[C@@]1(O)CC[C@H]2[C@@]12C=C[C@H](O)[C@@](C)(C(=O)O1)[C@H]2[C@@H]3C(=O)O` [Gibberellic acid] returned a growth rate of 0.59 ± 0.064.

For `O=C(O)Cc1cccc2ccccc12` [1-Naphthaleneacetic acid, 1-naphthaleneacetic acid], the growth rate is reported as 0.84 ± 0.087.

For `c1ccc(CNc2ncnc3nc[nH]c23)cc1` [6-Benzylaminopurine, 6-benzylaminopurine], the growth rate came out at 0.46 ± 0.056.

Staying with this assay, now noted: hormone 0.1 ng, control 0.41 ± 0.042.
`C=C1C[C@]23C[C@@]1(O)CC[C@H]2[C@@]12C=C[C@H](O)[C@@](C)(C(=O)O1)[C@H]2[C@@H]3C(=O)O` [Gibberellic acid] showed a growth rate of 0.47 ± 0.081.

Molecule `O=C(O)Cc1cccc2ccccc12` [1-Naphthaleneacetic acid, 1-naphthaleneacetic acid] came in with a growth rate of 0.85 ± 0.042.

For the molecule `c1ccc(CNc2ncnc3nc[nH]c23)cc1` [6-Benzylaminopurine, 6-benzylaminopurine], the growth rate is reported as 0.37 ± 0.099.

The assay is the same for the next values; noted with them: hormone 1 ng, control 0.41 ± 0.042.
The molecule `C=C1C[C@]23C[C@@]1(O)CC[C@H]2[C@@]12C=C[C@H](O)[C@@](C)(C(=O)O1)[C@H]2[C@@H]3C(=O)O` [Gibberellic acid] had a growth rate of 0.56 ± 0.087.

In turn, `O=C(O)Cc1cccc2ccccc12` [1-Naphthaleneacetic acid, 1-naphthaleneacetic acid] registered a growth rate of 0.81 ± 0.042.

For the molecule `c1ccc(CNc2ncnc3nc[nH]c23)cc1` [6-Benzylaminopurine, 6-benzylaminopurine], the growth rate stood at 0.47 ± 0.011.

Still in this assay, the particulars now being: hormone 10 ng, control 0.41 ± 0.042.
`C=C1C[C@]23C[C@@]1(O)CC[C@H]2[C@@]12C=C[C@H](O)[C@@](C)(C(=O)O1)[C@H]2[C@@H]3C(=O)O` [Gibberellic acid] yielded a growth rate of 0.56 ± 0.141.

Molecule `O=C(O)Cc1cccc2ccccc12` [1-Naphthaleneacetic acid, 1-naphthaleneacetic acid] displayed a growth rate of 0.80 ± 0.141.

Molecule `c1ccc(CNc2ncnc3nc[nH]c23)cc1` [6-Benzylaminopurine, 6-benzylaminopurine] returned a growth rate of 0.47 ± 0.064.

Staying with this assay, now noted: hormone 100 ng, control 0.41 ± 0.042.
As for `C=C1C[C@]23C[C@@]1(O)CC[C@H]2[C@@]12C=C[C@H](O)[C@@](C)(C(=O)O1)[C@H]2[C@@H]3C(=O)O` [Gibberellic acid], the growth rate is listed as 0.51 ± 0.110.

Molecule `O=C(O)Cc1cccc2ccccc12` [1-Naphthaleneacetic acid, 1-naphthaleneacetic acid] returned a growth rate of 0.73 ± 0.046.

Molecule `c1ccc(CNc2ncnc3nc[nH]c23)cc1` [6-Benzylaminopurine, 6-benzylaminopurine] gave a growth rate of 0.52 ± 0.060.

The test system of a further assay is Scenedesmus obliquus. Description: Effect of hormone concentrations on growth rate, heterotrophic conditions, 48 hours. The following applies: hormone 0.01 ng, control 0.35 ± 0.023. Also noted: unit not given here. Format: cell-based.
With `C=C1C[C@]23C[C@@]1(O)CC[C@H]2[C@@]12C=C[C@H](O)[C@@](C)(C(=O)O1)[C@H]2[C@@H]3C(=O)O` [Gibberellic acid], the growth rate came out at 0.44 ± 0.083.

The molecule `O=C(O)Cc1cccc2ccccc12` [1-Naphthaleneacetic acid, 1-naphthaleneacetic acid] displayed a growth rate of 0.26 ± 0.042.

In the case of `c1ccc(CNc2ncnc3nc[nH]c23)cc1` [6-Benzylaminopurine, 6-benzylaminopurine], the growth rate is reported as 0.28 ± 0.081.

The assay is the same for the next values; noted with them: hormone 0.1 ng, control 0.35 ± 0.023.
The molecule `C=C1C[C@]23C[C@@]1(O)CC[C@H]2[C@@]12C=C[C@H](O)[C@@](C)(C(=O)O1)[C@H]2[C@@H]3C(=O)O` [Gibberellic acid] yielded a growth rate of 0.50 ± 0.046.

`O=C(O)Cc1cccc2ccccc12` [1-Naphthaleneacetic acid, 1-naphthaleneacetic acid] had a growth rate of 0.28 ± 0.011.

With `c1ccc(CNc2ncnc3nc[nH]c23)cc1` [6-Benzylaminopurine, 6-benzylaminopurine], the growth rate was 0.32 ± 0.061.

The assay is the same for the next values; noted with them: hormone 1 ng, control 0.35 ± 0.023.
As to `C=C1C[C@]23C[C@@]1(O)CC[C@H]2[C@@]12C=C[C@H](O)[C@@](C)(C(=O)O1)[C@H]2[C@@H]3C(=O)O` [Gibberellic acid], the growth rate was 0.43 ± 0.020.

The molecule `O=C(O)Cc1cccc2ccccc12` [1-Naphthaleneacetic acid, 1-naphthaleneacetic acid] displayed a growth rate of 0.33 ± 0.020.

`c1ccc(CNc2ncnc3nc[nH]c23)cc1` [6-Benzylaminopurine, 6-benzylaminopurine] had a growth rate of 0.39 ± 0.092.

Staying with this assay, now noted: hormone 10 ng, control 0.35 ± 0.023.
The molecule `C=C1C[C@]23C[C@@]1(O)CC[C@H]2[C@@]12C=C[C@H](O)[C@@](C)(C(=O)O1)[C@H]2[C@@H]3C(=O)O` [Gibberellic acid] had a growth rate of 0.36 ± 0.050.

For `O=C(O)Cc1cccc2ccccc12` [1-Naphthaleneacetic acid, 1-naphthaleneacetic acid], the growth rate came to 0.28 ± 0.099.

As to `c1ccc(CNc2ncnc3nc[nH]c23)cc1` [6-Benzylaminopurine, 6-benzylaminopurine], the growth rate is 0.36 ± 0.092.

Staying with this assay, now noted: hormone 100 ng, control 0.35 ± 0.023.
`C=C1C[C@]23C[C@@]1(O)CC[C@H]2[C@@]12C=C[C@H](O)[C@@](C)(C(=O)O1)[C@H]2[C@@H]3C(=O)O` [Gibberellic acid]: the growth rate amounted to 0.42 ± 0.064.

`O=C(O)Cc1cccc2ccccc12` [1-Naphthaleneacetic acid, 1-naphthaleneacetic acid] displayed a growth rate of 0.39 ± 0.053.

Molecule `c1ccc(CNc2ncnc3nc[nH]c23)cc1` [6-Benzylaminopurine, 6-benzylaminopurine] displayed a growth rate of 0.33 ± 0.104.

The next assay concerns Chlorella protothecoides. Nature of the assay: Effect of hormone concentrations on growth rate, photoheterotrophic conditions, 48 hours. Format: cell-based. Also on record: unit not given here. The settings on record: hormone 0.01 ng, control 1.05 ± 0.020.
`C=C1C[C@]23C[C@@]1(O)CC[C@H]2[C@@]12C=C[C@H](O)[C@@](C)(C(=O)O1)[C@H]2[C@@H]3C(=O)O` [Gibberellic acid] gave a growth rate of 1.06 ± 0.011.

For the molecule `O=C(O)Cc1cccc2ccccc12` [1-Naphthaleneacetic acid, 1-naphthaleneacetic acid], the growth rate turned out to be 1.00 ± 0.058.

Turning to `c1ccc(CNc2ncnc3nc[nH]c23)cc1` [6-Benzylaminopurine, 6-benzylaminopurine], the growth rate was 1.00 ± 0.030.

Staying with this assay, now noted: hormone 0.1 ng, control 1.05 ± 0.020.
Take `C=C1C[C@]23C[C@@]1(O)CC[C@H]2[C@@]12C=C[C@H](O)[C@@](C)(C(=O)O1)[C@H]2[C@@H]3C(=O)O` [Gibberellic acid]: the growth rate was 1.02 ± 0.046.

As for `O=C(O)Cc1cccc2ccccc12` [1-Naphthaleneacetic acid, 1-naphthaleneacetic acid], the growth rate is on record as 1.02 ± 0.050.

For `c1ccc(CNc2ncnc3nc[nH]c23)cc1` [6-Benzylaminopurine, 6-benzylaminopurine], the growth rate turned out to be 1.12 ± 0.011.

The assay is the same for the next values; noted with them: hormone 1 ng, control 1.05 ± 0.020.
The molecule `C=C1C[C@]23C[C@@]1(O)CC[C@H]2[C@@]12C=C[C@H](O)[C@@](C)(C(=O)O1)[C@H]2[C@@H]3C(=O)O` [Gibberellic acid] gave a growth rate of 1.00 ± 0.030.

For `O=C(O)Cc1cccc2ccccc12` [1-Naphthaleneacetic acid, 1-naphthaleneacetic acid], the growth rate was 1.05 ± 0.035.

For the molecule `c1ccc(CNc2ncnc3nc[nH]c23)cc1` [6-Benzylaminopurine, 6-benzylaminopurine], the growth rate worked out at 1.07 ± 0.035.

The assay is the same for the next values; noted with them: hormone 10 ng, control 1.05 ± 0.020.
For `C=C1C[C@]23C[C@@]1(O)CC[C@H]2[C@@]12C=C[C@H](O)[C@@](C)(C(=O)O1)[C@H]2[C@@H]3C(=O)O` [Gibberellic acid], the growth rate was 1.09 ± 0.122.

`O=C(O)Cc1cccc2ccccc12` [1-Naphthaleneacetic acid, 1-naphthaleneacetic acid] displayed a growth rate of 1.07 ± 0.028.

Molecule `c1ccc(CNc2ncnc3nc[nH]c23)cc1` [6-Benzylaminopurine, 6-benzylaminopurine] registered a growth rate of 1.04 ± 0.083.

Still in this assay, the particulars now being: hormone 100 ng, control 1.05 ± 0.020.
As for `C=C1C[C@]23C[C@@]1(O)CC[C@H]2[C@@]12C=C[C@H](O)[C@@](C)(C(=O)O1)[C@H]2[C@@H]3C(=O)O` [Gibberellic acid], the growth rate was determined as 1.10 ± 0.070.

With `O=C(O)Cc1cccc2ccccc12` [1-Naphthaleneacetic acid, 1-naphthaleneacetic acid], the growth rate is on record as 1.16 ± 0.152.

For the molecule `c1ccc(CNc2ncnc3nc[nH]c23)cc1` [6-Benzylaminopurine, 6-benzylaminopurine], the growth rate was 1.08 ± 0.023.

For a further assay, the system named is Chlorella protothecoides. Description: Effect of hormone concentrations on growth rate, heterotrophic conditions, 48 hours. The format is cell-based. Also noted: unit not given here. The settings on record: hormone 0.01 ng, control 1.54 ± 0.080.
As to `C=C1C[C@]23C[C@@]1(O)CC[C@H]2[C@@]12C=C[C@H](O)[C@@](C)(C(=O)O1)[C@H]2[C@@H]3C(=O)O` [Gibberellic acid], the growth rate came out at 1.52 ± 0.201.

Molecule `O=C(O)Cc1cccc2ccccc12` [1-Naphthaleneacetic acid, 1-naphthaleneacetic acid] came in with a growth rate of 1.66 ± 0.140.

`c1ccc(CNc2ncnc3nc[nH]c23)cc1` [6-Benzylaminopurine, 6-benzylaminopurine] returned a growth rate of 1.48 ± 0.121.

The assay is the same for the next values; noted with them: hormone 0.1 ng, control 1.54 ± 0.080.
For `C=C1C[C@]23C[C@@]1(O)CC[C@H]2[C@@]12C=C[C@H](O)[C@@](C)(C(=O)O1)[C@H]2[C@@H]3C(=O)O` [Gibberellic acid], the growth rate turned out to be 1.52 ± 0.151.

`O=C(O)Cc1cccc2ccccc12` [1-Naphthaleneacetic acid, 1-naphthaleneacetic acid] yielded a growth rate of 1.54 ± 0.081.

For `c1ccc(CNc2ncnc3nc[nH]c23)cc1` [6-Benzylaminopurine, 6-benzylaminopurine], the growth rate was found to be 1.54 ± 0.081.

Still in this assay, the particulars now being: hormone 1 ng, control 1.54 ± 0.080.
`C=C1C[C@]23C[C@@]1(O)CC[C@H]2[C@@]12C=C[C@H](O)[C@@](C)(C(=O)O1)[C@H]2[C@@H]3C(=O)O` [Gibberellic acid] had a growth rate of 1.46 ± 0.090.

For `O=C(O)Cc1cccc2ccccc12` [1-Naphthaleneacetic acid, 1-naphthaleneacetic acid], the growth rate came to 1.62 ± 0.136.

For `c1ccc(CNc2ncnc3nc[nH]c23)cc1` [6-Benzylaminopurine, 6-benzylaminopurine], the growth rate turned out to be 1.50 ± 0.012.

The assay is the same for the next values; noted with them: hormone 10 ng, control 1.54 ± 0.080.
In the case of `C=C1C[C@]23C[C@@]1(O)CC[C@H]2[C@@]12C=C[C@H](O)[C@@](C)(C(=O)O1)[C@H]2[C@@H]3C(=O)O` [Gibberellic acid], the growth rate was 1.52 ± 0.099.

`O=C(O)Cc1cccc2ccccc12` [1-Naphthaleneacetic acid, 1-naphthaleneacetic acid] had a growth rate of 1.57 ± 0.028.

In turn, `c1ccc(CNc2ncnc3nc[nH]c23)cc1` [6-Benzylaminopurine, 6-benzylaminopurine] had a growth rate of 1.52 ± 0.117.

Staying with this assay, now noted: hormone 100 ng, control 1.54 ± 0.080.
Molecule `C=C1C[C@]23C[C@@]1(O)CC[C@H]2[C@@]12C=C[C@H](O)[C@@](C)(C(=O)O1)[C@H]2[C@@H]3C(=O)O` [Gibberellic acid] showed a growth rate of 1.46 ± 0.050.

As to `O=C(O)Cc1cccc2ccccc12` [1-Naphthaleneacetic acid, 1-naphthaleneacetic acid], the growth rate worked out at 1.62 ± 0.064.

For the molecule `c1ccc(CNc2ncnc3nc[nH]c23)cc1` [6-Benzylaminopurine, 6-benzylaminopurine], the growth rate was determined as 1.46 ± 0.150.
